Experimental data taken from publication PMC12693167, “Design, Synthesis and Anticancer Activity of 6-Substituted-1-(3,4,5-trimethoxyphenyl)-1H-indole Against Tubulin Polymerisation” (Molecules, 2025).

Assays:
[1] = tested on: MCF-7 cells; experiment: CCK-8 antiproliferative assay, MCF-7; assay type: cell-based; conditions: Homo sapiens, MCF7; cell viability (CCK-8), 48 h
Experimental: (§1) To evaluate the anticancer potential of the synthesized compounds, a panel of six human and murine cancer cell lines representing different tissue origins was selected, including MCF-7 (human breast adenocarcinoma), MDA-MB-231 (human triple-negative breast cancer), A549 (human non-small cell lung cancer), HeLa (human cervical cancer), A375 (human melanoma), and B16-F10 (murine melanoma) (Table 2). […] DMSO was used as the vehicle control, and all experiments were performed in triplicate to ensure reproducibility.
(§2) Human breast cancer cells (MCF-7), human lung cancer cells (A549), human cervical cancer cells (HeLa), human triple-negative breast cancer cells (MDA-MB-231), and human malignant melanoma cells (A375) were cultured in DMEM. Mouse melanoma cells (B16F10) were maintained in RPMI-1640 medium. All media were supplemented with 10% fetal bovine serum and 1% penicillin-streptomycin (Life Technologies, Carlsbad, CA, USA) and maintained at 37 °C in a humidified atmosphere with 5% CO2.
(§3) The cytotoxicity of the test compounds was evaluated against MCF-7, A549, HeLa, MDA-MB-231, A375, and B16F10 using the CCK-8 assay. Cells were seeded into 96-well plates at a density of 5000 cells/well. After removing the medium, 100 μL of medium with 0.1% DMSO containing test compounds at different concentrations was added to each well and incubated at 37 °C for another 48 h. The CCK-8 solution was added and incubated for another 1 h, and then, the absorbance was detected with a microplate reader at a wavelength of 450 nm. The IC50 values were calculated by nonlinear regression analysis using GraphPad Prism 8.0.2. All the experiments were repeated at least three times.

[2] = tested on: A375 cells; experiment: CCK-8 antiproliferative assay, A375; assay type: cell-based; conditions: Homo sapiens, A-375; cell viability (CCK-8), 48 h
Experimental: as §1, §2, §3

[3] = tested on: MCF-7 cells; experiment: Wound healing assay; assay type: cell-based, human; conditions: 0.1, 1, 10 μM, 24 h, vs untreated control
Experimental: (§4) The impact of compound 3g on MCF-7 cell migration was assessed using wound healing and transwell migration assays.
MCF-7 cells were seeded and incubated in a 6-well plate overnight. Scratches were made in confluent monolayers with a 200 μL pipette tip. Then, wounds were washed twice with media to remove debris and uprooted cells. Cells were treated with various concentrations (0, 0.1, 1, and 10 μM) of compound 3g. Images were obtained using phase contrast microscopy at 0 and 24 h. The migration distance of cells in the wound area was quantified using ImageJ.
Figure 4 Effect of compound 3g on the migration of MCF-7 breast cancer cells. (A) 3g inhibited the migration of MCF-7 cells at different concentrations in a dose-dependent manner. Representative images of wound healing were captured by an inverted microscope at 0 h and 24 h treatment. Scale bar = 200 μm. (B) Wound closure percentages in the different groups after treatment with 3g for 24 h. (C) Results of the transwell migration assay. Representative images of the stained migrated cells after incubation with 3g at different concentrations for 48 h. Scale bar = 200 μm. Data are presented as the mean ± SD of three independent experiments. Bar values represent the standard deviation SD. ** p < 0.01, and *** p < 0.001 (one-way ANOVA).

[4] = tested on: MCF-7 cells; experiment: Transwell migration assay; assay type: cell-based, human; conditions: 24 h exposure, dose-dependent
Experimental: as §4
MCF-7 cells were seeded into six-well culture plates at a density of 5 × 10^5 cells per well for 24 h. After treatment with compounds 3g at different concentrations for 24 h, cells were harvested and inoculated on transwell filters ([…] pore size, Millipore, Billerica, MA, USA) in 24-well culture plates. The cells in the top chamber were cultured in the FBS-free medium, and those in the bottom chamber were cultured in the medium containing 10% FBS. The plates were cultivated for an additional 48 h, and the cells that had migrated to the bottom of the top chambers were fixed with 4% paraformaldehyde and then stained with 0.1% crystal violet. Images of migrated cells were obtained using an inverted microscope (Olympus IX73, Olympus Corporation, Tokyo, Japan).
Figure 4 Effect of compound 3g on the migration of MCF-7 breast cancer cells. (A) 3g inhibited the migration of MCF-7 cells at different concentrations in a dose-dependent manner. Representative images of wound healing were captured by an inverted microscope at 0 h and 24 h treatment. Scale bar = 200 μm. (B) Wound closure percentages in the different groups after treatment with 3g for 24 h. (C) Results of the transwell migration assay. […]

[5] = tested on: MCF-7 cells; experiment: Annexin V-FITC/PI apoptosis assay; assay type: cell-based, human; conditions: 48 h
Experimental: Given that mitotic arrest induced by tubulin polymerization inhibitors is commonly associated with apoptosis, an Annexin V-FITC/propidium iodide (PI) assay was conducted to evaluate the pro-apoptotic effect of compound 3g in MCF-7 cells.
MCF-7 cells were seeded into 6-well plates and cultured overnight. After treating with compound 3g (0.1, 1, and 10 μM) for 48 h, cells were harvested and suspended in binding buffer containing annexin V-FITC (0.5 mg/mL) and PI (0.5 mg/mL). After that, samples were incubated for 20 min in the dark and analyzed with a flow cytometer.
Figure 7 Effects of compound 3g on apoptosis in MCF-7 cells. (A) Apoptosis induction by compound 3g in MCF-7 cells. Cells were treated with increasing concentrations of 3g (0.1, 1, and 10 μM) for 48 h, followed by Annexin V-FITC/PI staining and flow cytometric analysis. Cell populations were categorized as necrotic (upper left quadrant), late apoptotic (upper right), viable (lower left), and early apoptotic (lower right). (B) Quantification of apoptotic populations. Bar graphs show the percentage of cells in each apoptotic stage after treatment. Data are presented as mean ± SD from three independent experiments. Statistical significance was determined by one-way ANOVA followed by Tukey’s post hoc test. TEXT PRINTED IN THE PICTURE: (A) Control: Q1(20.37%); Q2(15.42%); Q4(59.96%); Q3(4.25%) | (A) no label printed: Q1(8.46%) (0.1 μM); Q2(23.10%) (0.1 μM); Q4(59.68%) (0.1 μM); Q3(8.75%) (0.1 μM); Q1(8.98%) (1 μM); Q2(29.15%) (1 μM); Q4(50.67%) (1 μM); Q3(11.19%) (1 μM); Q1-UL(12.21%) (10 μM); Q1-UR(40.63%) (10 μM); Q1-LL(34.55%) (10 μM); Q1-LR(12.61%) (10 μM) DOUBTS OF THE COPYIST ABOUT THIS PICTURE: The picture prints no label for the treated substance; only the concentrations 0.1 μM, 1 μM and 10 μM are printed over the plots, so they are given as conditions. / Control is untreated cells rather than a substance; it is listed because quadrant percentages are printed with that name. / The quadrant print is very small, so 3, 5, 6, 8 and 9 cannot be told apart with certainty in any of these values. / Control: Q1 20.37%, Q2 15.42%, Q4 59.96%, Q3 4.25% are best readings. / 0.1 μM: Q1 8.46%, Q2 23.10%, Q4 59.68%, Q3 8.75% are best readings. / 1 μM: Q1 8.98%, Q2 29.15%, Q4 50.67%, Q3 11.19% are best readings. / 10 μM: Q1-UL 12.21%, Q1-UR 40.63%, Q1-LL 34.55%, Q1-LR 12.61% are best readings.

In the case of `COc1cc(-n2ccc3ccc(-c4ccc(C)c(C#N)c4)cc32)cc(OC)c1OC` [3g, 2-methyl-5-(1-(3,4,5-trimethoxyphenyl)-1H-indol-6-yl)benzonitrile], the IC50 [1] is reported as 2940 ± 560 nM, the IC50 [2] is reported as 570 ± 10 nM and the wound closure [3] is reported as “markedly inhibited”. For the same compound, the “number of cells traversing the membrane” value [4] was “significant reduction”, the apoptosis induction ([5]; 10 μM) was “significantly inducing apoptosis” and the apoptotic cell populations ([5]; 0.1, 1 and 10 μM) was “dose-dependent increase”. It also gave a viability at 0.1 µM ([5]; Homo sapiens, MCF7, 0.1 μM, read-out: viable cells (lower left quadrant, Q4)) of 59.7%, a viability at 1 µM ([5]; Homo sapiens, MCF7, 1 μM, read-out: viable cells (lower left quadrant, Q4)) of 50.7% and a viability at 10 µM ([5]; Homo sapiens, MCF7, 10 μM, read-out: viable cells (lower left quadrant, Q1-LL)) of 34.5%.
